Legend:
[1] = target: human orexin-2 receptor (Homo sapiens (Human), UniProt O43614); assay: Human orexin 2 receptor radioligand binding ([3H]-EMPA competition); conditions: HEK293 cells stably expressing human orexin-2 receptor; [3H]-EMPA 5 nM final; read-out: OR-2 Ki
Outline: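 Competition binding on HEK293 cells stably expressing human orexin-2 receptor, using 5 nM final [3H]-EMPA in PBS, compounds 0.1 nM to 10 μM (DMSO ≤0.1%). 60 min at room temperature, then filtration and scintillation counting; nonspecific binding defined with 10 μM of a reference antagonist.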

[2] = target: human orexin 1 receptor (Homo sapiens (Human), UniProt O43613); assay: Human orexin 1 receptor radioligand binding ([3H]-SB674042 competition); conditions: CHO cells stably expressing human orexin 1 receptor; [3H]-SB674042 4 nM final; read-out: OR-1 Ki
human orexin 1 receptor, sequence (O43613 whole entry): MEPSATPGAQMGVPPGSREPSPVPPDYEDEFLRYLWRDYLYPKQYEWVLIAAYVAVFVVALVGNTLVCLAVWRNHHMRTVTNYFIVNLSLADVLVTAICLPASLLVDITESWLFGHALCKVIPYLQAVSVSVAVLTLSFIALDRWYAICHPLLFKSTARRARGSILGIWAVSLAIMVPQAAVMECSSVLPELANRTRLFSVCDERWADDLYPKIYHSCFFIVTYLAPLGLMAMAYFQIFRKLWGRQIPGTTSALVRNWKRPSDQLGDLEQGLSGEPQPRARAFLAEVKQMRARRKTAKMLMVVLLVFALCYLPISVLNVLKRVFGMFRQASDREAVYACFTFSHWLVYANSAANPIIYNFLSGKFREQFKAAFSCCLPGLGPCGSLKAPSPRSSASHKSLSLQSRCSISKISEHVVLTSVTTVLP
Outline: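 CHO cells stably expressing human OX1R incubated 60 min at room temperature with [3H]-SB674042 and compounds (7 concentrations, 0.1 nM–10 μM; DMSO ≤0.1%) in PBS. Nonspecific binding defined with 10 μM of a reference urea antagonist; bound radioactivity measured by filtration and scintillation counting.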

human orexin-2 receptor, sequence (O43614 whole entry): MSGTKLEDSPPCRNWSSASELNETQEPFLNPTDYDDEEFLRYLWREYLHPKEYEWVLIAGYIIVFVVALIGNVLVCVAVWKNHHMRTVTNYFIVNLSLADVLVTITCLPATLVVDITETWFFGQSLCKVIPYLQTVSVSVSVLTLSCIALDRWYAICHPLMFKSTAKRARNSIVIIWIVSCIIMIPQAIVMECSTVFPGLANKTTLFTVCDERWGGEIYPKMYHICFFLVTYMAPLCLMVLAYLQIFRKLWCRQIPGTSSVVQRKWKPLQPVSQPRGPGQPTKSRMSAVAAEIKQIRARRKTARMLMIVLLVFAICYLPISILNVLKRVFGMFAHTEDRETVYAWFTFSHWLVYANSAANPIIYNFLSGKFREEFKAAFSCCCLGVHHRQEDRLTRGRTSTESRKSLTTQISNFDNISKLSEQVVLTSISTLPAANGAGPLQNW

| Ki [1] [nM] | Ki [2] [nM] | Compound |
| --- | --- | --- |
| 28 | 23 | O=C(c1cccc(F)c1-n1nccn1)N1CC[C@H]2CN(c3cnc4ccccc4n3)[C@H]2C1 [Example 116, 2-[(1R,6S)-3-{[3-Fluoro-2-(2H-1,2,3-triazol-2-yl)phenyl]carbonyl}-3,8-diazabicyclo[4.2.0]oct-8-yl]quinoxaline] |
| 1070 | 254 | Cc1ccc(C)c(S(=O)(=O)N2CCC3CN(c4nccc(-c5ccccc5)n4)C3C2)c1 (centres unmarked) [Example 19, 3-(2,5-Dimethyl-benzenesulfonyl)-8-(4-phenyl-pyrimidin-2-yl)-3,8-diaza-bicyclo[4.2.0]octane] |
| 3100 | 2600 | Cc1onc(-c2ccccc2)c1C(=O)N1CC[C@H]2CN(c3ccnc(-c4ccccc4)n3)[C@H]2C1 [Example 197, (5-Methyl-3-phenylisoxazol-4-yl)((1R,6S)-8-(2-phenylpyrimidin-4-yl)-3,8-diazabicyclo[4.2.0]octan-3-yl)methanone] |
| 190 | 3900 | Cc1cc(C)nc(N2C[C@@H]3CCN(C(=O)c4cc(F)ccc4Br)C[C@@H]32)n1 [Example 164, (1R,6S)-3-[(2-Bromo-5-fluorophenyl)carbonyl]-8-(4,6-dimethylpyrimidin-2-yl)-3,8-diazabicyclo[4.2.0]octane] |
| 9 | 156 | Cc1cc(C)nc(N2C[C@@H]3CCN(C(=O)c4cccc(F)c4-c4cc[nH]n4)C[C@@H]32)n1 [Example 184, (1R,6S)-8-(4,6-Dimethylpyrimidin-2-yl)-3-{[3-fluoro-2-(1H-pyrazol-3-yl)phenyl]carbonyl}-3,8-diazabicyclo[4.2.0]octane] |
| 1290 | 5020 | Cc1cnc(C)c(N2C[C@@H]3CCN(C(=O)c4cc(F)ccc4-n4nccn4)C[C@@H]32)n1 [Example 97, (1R,6S)-8-(3,6-Dimethylpyrazin-2-yl)-3-{[5-fluoro-2-(2H-1,2,3-triazol-2-yl)phenyl]carbonyl}-3,8-diazabicyclo[4.2.0]octane] |
| 185 | 860 | COc1ccc(-c2ncccn2)c(C(=O)N2CC[C@H]3CN(c4nc(C)cc(C)n4)[C@H]3C2)c1F [Example 156, (1R,6S)-8-(4,6-Dimethylpyrimidin-2-yl)-3-[(2-fluoro-3-methoxy-6-pyrimidin-2-ylphenyl)carbonyl]-3,8-diazabicyclo[4.2.0]octane] |
| 45 | 95 | O=C(c1cccc(F)c1-n1nccn1)N1CC[C@H]2CN(c3nc4cc(Cl)ccc4o3)[C@H]2C1 [Example 123, 5-Chloro-2-[(1R,6S)-3-{[3-fluoro-2-(2H-1,2,3-triazol-2-yl)phenyl]carbonyl}-3,8-diazabicyclo[4.2.0]oct-8-yl]-1,3-benzoxazole] |
| 230 | 3700 | Cc1ccc(C(=O)N2CC[C@H]3CN(c4nccc(C(F)(F)F)n4)[C@H]3C2)c(-n2ccnn2)n1 [Example 93, (1R,6S)-3-{[6-Methyl-2-(1H-1,2,3-triazol-1-yl)pyridin-3-yl]carbonyl}-8-[4-(trifluoromethyl)pyrimidin-2-yl]-3,8-diazabicyclo[4.2.0]octane] |
| 170 | 3200 | Cc1cc(C)nc(N2C[C@@H]3CCN(C(=O)c4cc(C)c(C)nc4-n4ccnn4)C[C@@H]32)n1 [Example 158, (1R,6S)-8-(4,6-Dimethylpyrimidin-2-yl)-3-{[5,6-dimethyl-2-(1H-1,2,3-triazol-1-yl)pyridin-3-yl]carbonyl}-3,8-diazabicyclo[4.2.0]octane] |
| 9320 | 10000 | Cc1ccnc(N2CC3CN(C(=O)c4ccccc4Br)CC32)n1 (centres unmarked) [Example 59, (2-Bromo-phenyl)-[6-(4-methyl-pyrimidin-2-yl)-3,6-diaza-bicyclo[3.2.0]hept-3-yl]-methanone] |
| 73 | 3300 | Cc1cccc(N2C[C@@H]3CCN(C(=O)c4ccccc4-n4nccn4)C[C@@H]32)n1 [Example 125, (1R,6S)-8-(6-Methylpyridin-2-yl)-3-{[2-(2H-1,2,3-triazol-2-yl)phenyl]carbonyl}-3,8-diazabicyclo[4.2.0]octane] |
| 258 | 5840 | Cc1cnc(C)c(N2C[C@@H]3CCN(C(=O)c4ccccc4-n4nccn4)C[C@@H]32)n1 [Example 96, (1R,6S)-8-(3,6-Dimethylpyrazin-2-yl)-3-{[2-(2H-1,2,3-triazol-2-yl)phenyl]carbonyl}-3,8-diazabicyclo[4.2.0]octane] |
| 137 | 104 | Cc1nc(C(=O)N2CC3CN(c4nccc(-c5ccccc5)n4)C3C2)c(-c2ccccc2F)s1 (centres unmarked) [Example 52, 3-{[5-(2-Fluorophenyl)-2-methyl-1,3-thiazol-4-yl]carbonyl}-6-(4-phenylpyrimidin-2-yl)-3,6-diazabicyclo[3.2.0]heptane] |
| 190 | 6600 | Cc1cnc(N2C[C@@H]3CCN(C(=O)c4c(F)cccc4-n4nccn4)C[C@@H]32)cn1 [Example 101, (1R,6S)-3-{[2-Fluoro-6-(2H-1,2,3-triazol-2-yl)phenyl]carbonyl}-8-(5-methylpyrazin-2-yl)-3,8-diazabicyclo[4.2.0]octane] |
| 274 | 4920 | Cc1cnc(C)c(N2C[C@@H]3CCN(C(=O)c4c(F)cccc4-n4nccn4)C[C@@H]32)n1 [Example 98, (1R,6S)-8-(3,6-Dimethylpyrazin-2-yl)-3-{[2-fluoro-6-(2H-1,2,3-triazol-2-yl)phenyl]carbonyl}-3,8-diazabicyclo[4.2.0]octane] |
| 28 | 143 | Cc1ccc(-c2ncccn2)c(C(=O)N2CC[C@H]3CN(c4nc(C)cc(C)n4)[C@H]3C2)c1 [Example 27, (1R,6S)-[8-(4,6-Dimethyl-pyrimidin-2-yl)-3,8-diaza-bicyclo[4.2.0]oct-3-yl]-(5-methyl-2-pyrimidin-2-yl-phenyl)-methanone] |
| 16 | 77 | CN(C)c1nc(N2C[C@@H]3CCN(C(=O)c4ccc(F)cc4-n4nccn4)C[C@@H]32)cc(C(F)(F)F)n1 [Example 38, (1R,6S)-[8-(2-Dimethylamino-6-trifluoromethyl-pyrimidin-4-yl)-3,8-diaza-bicyclo[4.2.0]oct-3-yl]-(4-fluoro-2-[1,2,3]triazol-2-yl-phenyl)-methanone] |
| 92 | 274 | O=C(c1ccccc1-c1cccs1)N1C[C@@H]2CN(c3nccc(-c4ccccc4)n3)[C@@H]2C1 (single isomer, unassigned) [Example 55, 6-(4-Phenylpyrimidin-2-yl)-3-[(2-thiophen-2-ylphenyl)carbonyl]-3,6-diazabicyclo[3.2.0]heptane] |
| 17 | 341 | COc1ccc(-n2nccn2)c(C(=O)N2CC[C@H]3CN(c4cc(C)cc(C)n4)[C@H]3C2)c1 [Example 151, (1R,6S)-8-(4,6-Dimethylpyridin-2-yl)-3-{[5-methoxy-2-(2H-1,2,3-triazol-2-yl)phenyl]carbonyl}-3,8-diazabicyclo[4.2.0]octane] |
| 10 | 19 | CN(C)c1nc(N2C[C@@H]3CCN(C(=O)c4c(F)cccc4-n4nccn4)C[C@@H]32)cc(C(F)(F)F)n1 [Example 37, (1R,6S)-[8-(2-Dimethylamino-6-trifluoromethyl-pyrimidin-4-yl)-3,8-diaza-bicyclo[4.2.0]oct-3-yl]-(2-fluoro-6-[1,2,3]triazol-2-yl-phenyl)-methanone] |
| 149 | 5470 | Cc1cccc(N2C[C@@H]3CCN(C(=O)c4cc(F)ccc4-n4nccn4)C[C@@H]32)n1 [Example 126, (1R,6S)-3-{[5-Fluoro-2-(2H-1,2,3-triazol-2-yl)phenyl]carbonyl}-8-(6-methylpyridin-2-yl)-3,8-diazabicyclo[4.2.0]octane] |
| 3780 | 1210 | Cc1ccc(C)c(S(=O)(=O)N2CCC3CN(c4cnc5ccccc5n4)C3C2)c1 (centres unmarked) [Example 21, 2-[3-(2,5-Dimethyl-benzenesulfonyl)-3,8-diaza-bicyclo[4.2.0]oct-8-yl]-quinoxaline] |
| 250 | 1600 | Cc1ccc(N2C[C@@H]3CCN(C(=O)c4cc(F)ccc4-n4nccn4)C[C@@H]32)nc1 [Example 131, (1R,6S)-3-{[5-Fluoro-2-(2H-1,2,3-triazol-2-yl)phenyl]carbonyl}-8-(5-methylpyridin-2-yl)-3,8-diazabicyclo[4.2.0]octane] |
| 20 | 619 | Cc1cc(C)nc(N2C[C@@H]3CCN(C(=O)c4cc(F)ccc4-c4ncccn4)C[C@@H]32)n1 [Example 23, (1R,6S)[8-(4,6-Dimethyl-pyrimidin-2-yl)-3,8-diaza-bicyclo[4.2.0]oct-3-yl]-(5-fluoro-2-pyrimidin-2-yl-phenyl)-methanone] |
| 230 | 10000 | Cc1nc(N)cc(N2C[C@@H]3CCN(C(=O)c4cc(F)ccc4-n4nccn4)C[C@@H]32)n1 [Example 191, 6-[(1R,6S)-3-{[5-Fluoro-2-(2H-1,2,3-triazol-2-yl)phenyl]carbonyl}-3,8-diazabicyclo[4.2.0]oct-8-yl]-2-methylpyrimidin-4-amine] |
| 33 | 22 | O=C(c1ccccc1-c1ccccc1)N1CCC2CN(c3nccc(-c4ccccc4)n3)C2C1 (centres unmarked) [Example 9, Biphenyl-2-yl-[8-(4-phenyl-pyrimidin-2-yl)-3,8-diaza-bicyclo[4.2.0]oct-3-yl]-methanone] |
| 57 | 1530 | Cc1cc(C)nc(N2C[C@@H]3CCN(C(=O)c4cccc(F)c4-n4cccn4)C[C@@H]32)n1 [Example 155, (1R,6S)-8-(4,6-Dimethylpyrimidin-2-yl)-3-{[3-fluoro-2-(1H-pyrazol-1-yl)phenyl]carbonyl}-3,8-diazabicyclo[4.2.0]octane] |
